Measurements: ChEMBL document CHEMBL1152049, “Dual metalloprotease inhibitors.v. Utilization of bicyclic azepinonethiazolidines and azepinonetetrahydrothiazines in constrained peptidomimetics of mercaptoacyl dipeptides” (Bioorg Med Chem Lett, 1995)

Legend:
[1] = target: T1, Angiotensin-converting enzyme (Rattus norvegicus, UniProt P47820); assay: In vitro inhibitory activity against angiotensin converting enzyme (ACE); details: read-out: I50
T1 sequence (P47820 whole entry): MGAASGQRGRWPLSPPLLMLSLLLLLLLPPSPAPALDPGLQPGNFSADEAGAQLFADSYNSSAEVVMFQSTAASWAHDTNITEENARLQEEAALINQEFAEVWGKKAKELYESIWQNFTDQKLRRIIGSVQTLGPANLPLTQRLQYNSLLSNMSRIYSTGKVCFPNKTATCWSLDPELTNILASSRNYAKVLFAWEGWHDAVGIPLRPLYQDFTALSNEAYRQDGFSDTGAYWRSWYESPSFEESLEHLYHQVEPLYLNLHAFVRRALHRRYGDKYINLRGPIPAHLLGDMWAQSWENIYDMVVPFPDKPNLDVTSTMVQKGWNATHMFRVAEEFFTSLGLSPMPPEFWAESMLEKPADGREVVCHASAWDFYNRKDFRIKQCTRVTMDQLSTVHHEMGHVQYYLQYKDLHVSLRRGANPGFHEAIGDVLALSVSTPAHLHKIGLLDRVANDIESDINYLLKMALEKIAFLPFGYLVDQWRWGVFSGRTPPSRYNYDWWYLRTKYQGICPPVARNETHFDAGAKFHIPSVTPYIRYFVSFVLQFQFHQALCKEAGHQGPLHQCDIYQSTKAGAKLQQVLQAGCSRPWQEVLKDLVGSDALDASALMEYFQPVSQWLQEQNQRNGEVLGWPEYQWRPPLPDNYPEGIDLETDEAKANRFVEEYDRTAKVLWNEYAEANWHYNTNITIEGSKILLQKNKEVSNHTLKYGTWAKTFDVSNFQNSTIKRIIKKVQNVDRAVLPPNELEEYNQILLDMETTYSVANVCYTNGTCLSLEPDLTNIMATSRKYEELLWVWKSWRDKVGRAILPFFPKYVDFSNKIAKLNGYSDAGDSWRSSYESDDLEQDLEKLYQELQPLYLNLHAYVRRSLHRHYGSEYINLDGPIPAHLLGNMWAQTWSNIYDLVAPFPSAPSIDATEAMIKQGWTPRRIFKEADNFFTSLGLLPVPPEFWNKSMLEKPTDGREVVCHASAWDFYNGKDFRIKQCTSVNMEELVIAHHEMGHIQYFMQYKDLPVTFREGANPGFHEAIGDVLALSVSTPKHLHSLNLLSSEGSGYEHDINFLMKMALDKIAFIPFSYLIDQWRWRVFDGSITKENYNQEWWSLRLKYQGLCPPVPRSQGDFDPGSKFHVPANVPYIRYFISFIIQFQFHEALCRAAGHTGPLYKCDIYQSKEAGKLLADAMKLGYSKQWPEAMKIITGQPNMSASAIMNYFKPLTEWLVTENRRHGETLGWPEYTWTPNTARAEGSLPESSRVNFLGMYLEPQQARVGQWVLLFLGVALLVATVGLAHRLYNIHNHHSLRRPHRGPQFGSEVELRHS

Neprilysin = target: T2, Neprilysin (Rattus norvegicus, UniProt P07861); assay: In vitro inhibitory activity against neutral endopeptidase (NEP); details: read-out: I50
T2 sequence (P07861 whole entry): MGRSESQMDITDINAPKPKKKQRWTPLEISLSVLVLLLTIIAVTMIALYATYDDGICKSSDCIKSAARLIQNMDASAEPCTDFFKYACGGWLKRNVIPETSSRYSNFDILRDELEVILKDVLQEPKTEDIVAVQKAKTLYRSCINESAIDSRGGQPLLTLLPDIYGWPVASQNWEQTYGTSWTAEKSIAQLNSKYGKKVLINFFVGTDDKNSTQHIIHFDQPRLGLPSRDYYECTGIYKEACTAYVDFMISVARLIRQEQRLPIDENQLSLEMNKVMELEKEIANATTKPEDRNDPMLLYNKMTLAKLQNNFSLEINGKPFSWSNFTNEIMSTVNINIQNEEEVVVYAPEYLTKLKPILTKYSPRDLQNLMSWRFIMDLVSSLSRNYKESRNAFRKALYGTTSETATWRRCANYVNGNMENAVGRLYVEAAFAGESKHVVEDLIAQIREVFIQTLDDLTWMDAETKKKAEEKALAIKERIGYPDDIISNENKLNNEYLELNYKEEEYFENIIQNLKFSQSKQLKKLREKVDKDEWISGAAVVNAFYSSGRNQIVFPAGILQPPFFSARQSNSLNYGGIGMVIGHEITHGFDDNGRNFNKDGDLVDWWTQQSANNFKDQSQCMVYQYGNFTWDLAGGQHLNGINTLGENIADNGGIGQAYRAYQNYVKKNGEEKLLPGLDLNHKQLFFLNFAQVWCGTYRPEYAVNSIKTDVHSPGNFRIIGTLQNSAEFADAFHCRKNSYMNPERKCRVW

Rattus norvegicus = organism: Rattus norvegicus; assay: Dose required to effect 50% inhibition of the AI induced pressor response in normotensive rat; format: functional

IC50 [1] [nM] | IC50 (Neprilysin) [nM] | Compound | ED50 (Rattus norvegicus) [µmol/kg]
11.5 | 2820 | O=C(N[C@H]1CCC[C@@H]2SC[C@@H](C(=O)O)N2C1=O)[C@@H](S)Cc1ccccc1 | –
205 | 937 | O=C(O)[C@H]1CCS[C@@H]2CCC[C@H](NC(=O)[C@@H](S)Cc3ccccc3)C(=O)N12 | –
25 | 42 | O=C(N[C@H]1CCC[C@H]2SCC[C@@H](C(=O)O)N2C1=O)[C@@H](S)Cc1ccccc1 | –
11.6 | 133 | O=C(N[C@H]1CCC[C@@H]2SCC[C@@H](C(=O)O)N2C1=O)[C@@H](S)Cc1ccccc1 | –
1.6 | 11.5 | O=C(N[C@H]1CCC[C@H]2SC[C@@H](C(=O)O)N2C1=O)[C@@H](S)Cc1ccccc1 | 0.07
5.5 | 1.1 | O=C(N[C@H]1CCC[C@H]2SC[C@@H](C(=O)O)N2C1=O)[C@@H](CS)Cc1ccccc1 | 0.8
